One data set relates to patients with nocturia. In words: Continuation and termination of loxoprofen administration after the trial treatment. Type of data set: in vivo, human. On the procedure: After the initial study, loxoprofen was administered at the patients' discretion; 101 continued loxoprofen therapy for =320 (mean 61) days. After the evaluation, loxoprofen therapy was continued or not according to the patients' wishes (Table 5). Of 101 excellent and improved patients, 11 continued to take loxoprofen every night and 43 when necessary. The improvement of nocturia lasted for several months even after discontinuation of therapy in 11 (10%) who discontinued loxoprofen after 5 to 310 days' administration. In addition, in five patients in whom loxoprofen's effectiveness reduced after continuous administration, the effectiveness recovered with occasional administration following withdrawal for several weeks.

Another data set concerns nocturia. In words: Single BPH patient taking a loxoprofen sodium tablet before sleeping. It is filed as in vivo, human. Conditions: one patient treated for BPH; 60-mg tablet before sleeping. On the procedure: Based on the experience, the inventor conducted a non-randomized trial treatment with loxoprofen, a short-acting nonsteroidal anti-inflammatory drug (NSAID) prodrug usually prescribed at a dosage of 60 mg t.i.d. for the management of pain, in patients bothered by nocturia. […] The invention was achieved on the basis of these findings.

The mark [1] stands for this setting: discontinued after 5 to 310 days' administration.
Setting [2] is: patients with Excellent Response.
Where [3] appears, read: patients with Improved Response.

For the compound `CC(C(=O)O)c1ccc(CC2CCCC2=O)cc1` (stereo not drawn) [loxoprofen, loxoprofen sodium], in the data set on patients with nocturia (setting [1]), the “Improvement of nocturia lasted for several months after discontinuation of therapy, % of patients” value is 10% and the “Improvement of nocturia lasted for several months after discontinuation of therapy, no. of patients” value is 11. In the data set with patients with nocturia (following withdrawal for several weeks), the “Effectiveness reduced after continuous administration and recovered with occasional administration, no. of patients” value was “five”. Besides, in the data set on patients with nocturia (setting [2]), the “Discontinued therapy due to adverse events, no. of patients” value was determined as 1 and the “Discontinued therapy: cured or stable improvement, no. of patients” value was determined as 7. In the data set on patients with nocturia (setting [3]), the “Discontinued therapy due to adverse events, no. of patients” value came out at 9; the “Discontinued therapy: cured or stable improvement, no. of patients” value came to 4; the “Discontinued therapy: reduced efficacy, no. of patients” value was 2. Moreover, the “Nocturia, voids/night” value in the data set on nocturia is listed as “decreased from a usual of four voids to one void/night”.
